The supplement of paper PMC13207355

What was measured:
Conditions in all cases: exposure time: 72 h
E13 [1] = patient-derived glioblastoma stem cells of classical subtype; assay: surviving fraction (nuclei count normalised to DMSO); higher = more cells surviving (less toxic)
E21 [2] = patient-derived glioblastoma stem cells of mesenchymal subtype; assay: as above
E28 [3] = patient-derived glioblastoma stem cells of classical subtype; assay: as above
E31 [4] = patient-derived glioblastoma stem cells of proneural subtype; assay: as above
E34 [5] = patient-derived glioblastoma stem cells of proneural subtype; assay: as above
E57 [6] = patient-derived glioblastoma stem cells of mesenchymal subtype; assay: as above
FT3469 [7] = normal neural stem cell line; assay: as above
E13 [8] = assay: phenotypic distance (Euclidean, principal components) from DMSO controls (arbitrary units); higher = stronger morphological change
E21 [9] = assay: as above
E28 [10] = assay: as above
E31 [11] = assay: as above
E34 [12] = assay: as above
E57 [13] = assay: as above
FT3469 [14] = assay: as above
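For phenotypic distance (Euclidean, principal components) from DMSO controls in this document: cell Painting imaging in 384-well plates, CellProfiler features reduced to at least 20 principal components, Euclidean distance versus same-plate DMSO vehicle wells (0.1% v/v), median over six images per well.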
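For surviving fraction (nuclei count normalised to DMSO) in this document: nuclei counted by high-content imaging of Hoechst-stained cells in laminin-coated 384-well plates, relative to 0.1% DMSO vehicle wells, with staurosporine as cell-death control.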

Nc1ncn(C2OC(CO)C(O)C2O)c(=O)n1 (stereo unspecified) [Azacytidine-5]
Conditions	phenotypic distance	surviving fraction
E13 [1], 4.1 nM	–	0.948
E13 [1], 12.3 nM	–	0.902
E13 [1], 37 nM	–	0.957
E13 [1], 111.1 nM	–	1
E13 [1], 333.3 nM	–	1.01
E13 [1], 1000 nM	–	0.894
E13 [1], 3000 nM	–	0.634
E13 [8], 4.1 nM	0.774	–
E13 [8], 12.3 nM	0.925	–
E13 [8], 37 nM	0.631	–
E13 [8], 111.1 nM	1.16	–
E13 [8], 333.3 nM	1.01	–
E13 [8], 1000 nM	2.56	–
E13 [8], 3000 nM	4.39	–
E21 [2], 4.1 nM	–	0.945
E21 [2], 12.3 nM	–	0.932
E21 [2], 37 nM	–	1.07
E21 [2], 111.1 nM	–	0.892
E21 [2], 333.3 nM	–	0.978
E21 [2], 1000 nM	–	0.779
E21 [2], 3000 nM	–	0.634
E21 [9], 4.1 nM	1.45	–
E21 [9], 12.3 nM	0.512	–
E21 [9], 37 nM	0.843	–
E21 [9], 111.1 nM	1.36	–
E21 [9], 333.3 nM	1.28	–
E21 [9], 1000 nM	1.92	–
E21 [9], 3000 nM	2.82	–
E28 [3], 4.1 nM	–	0.969
E28 [3], 12.3 nM	–	1.09
E28 [3], 37 nM	–	0.969
E28 [3], 111.1 nM	–	1.1
E28 [3], 333.3 nM	–	0.952
E28 [3], 1000 nM	–	1.15
E28 [3], 3000 nM	–	0.764
E28 [10], 4.1 nM	0.577	–
E28 [10], 12.3 nM	0.65	–
E28 [10], 37 nM	0.956	–
E28 [10], 111.1 nM	0.825	–
E28 [10], 333.3 nM	3.86	–
E28 [10], 1000 nM	0.76	–
E28 [10], 3000 nM	1.01	–
E31 [4], 4.1 nM	–	0.962
E31 [4], 12.3 nM	–	0.827
E31 [4], 37 nM	–	0.96
E31 [4], 111.1 nM	–	0.986
E31 [4], 333.3 nM	–	1.04
E31 [4], 1000 nM	–	0.731
E31 [4], 3000 nM	–	0.439
E31 [11], 4.1 nM	0.548	–
E31 [11], 12.3 nM	0.901	–
E31 [11], 37 nM	0.564	–
E31 [11], 111.1 nM	0.874	–
E31 [11], 333.3 nM	1.27	–
E31 [11], 1000 nM	1.11	–
E31 [11], 3000 nM	2.48	–
E34 [5], 4.1 nM	–	0.935
E34 [5], 12.3 nM	–	0.979
E34 [5], 37 nM	–	0.89
E34 [5], 111.1 nM	–	1.09
E34 [5], 333.3 nM	–	1.04
E34 [5], 1000 nM	–	0.914
E34 [5], 3000 nM	–	0.858
E34 [12], 4.1 nM	0.787	–
E34 [12], 12.3 nM	0.546	–
E34 [12], 37 nM	0.387	–
E34 [12], 111.1 nM	0.835	–
E34 [12], 333.3 nM	0.732	–
E34 [12], 1000 nM	0.672	–
E34 [12], 3000 nM	1.24	–
E57 [6], 4.1 nM	–	0.979
E57 [6], 12.3 nM	–	1.09
E57 [6], 37 nM	–	0.948
E57 [6], 111.1 nM	–	0.974
E57 [6], 333.3 nM	–	0.859
E57 [6], 1000 nM	–	0.702
E57 [6], 3000 nM	–	0.411
E57 [13], 4.1 nM	0.265	–
E57 [13], 12.3 nM	1.15	–
E57 [13], 37 nM	0.6	–
E57 [13], 111.1 nM	0.593	–
E57 [13], 333.3 nM	1.38	–
E57 [13], 1000 nM	2.03	–
E57 [13], 3000 nM	3.86	–
FT3469 [7], 4.1 nM	–	0.953
FT3469 [7], 12.3 nM	–	1
FT3469 [7], 37 nM	–	1.1
FT3469 [7], 111.1 nM	–	0.935
FT3469 [7], 333.3 nM	–	0.809
FT3469 [7], 1000 nM	–	1.04
FT3469 [7], 3000 nM	–	0.906
FT3469 [14], 4.1 nM	0.816	–
FT3469 [14], 12.3 nM	0.612	–
FT3469 [14], 37 nM	0.486	–
FT3469 [14], 111.1 nM	1.17	–
FT3469 [14], 333.3 nM	0.757	–
FT3469 [14], 1000 nM	0.865	–
FT3469 [14], 3000 nM	1.77	–

Oc1c(Cl)cc(Cl)c(Cl)c1Cc1c(O)c(Cl)cc(Cl)c1Cl [Hexachlorophene]
Conditions	phenotypic distance	surviving fraction
E13 [1], 4.1 nM	–	0.829
E13 [1], 12.3 nM	–	0.908
E13 [1], 37 nM	–	0.957
E13 [1], 111.1 nM	–	0.796
E13 [1], 333.3 nM	–	0.826
E13 [1], 1000 nM	–	0.68
E13 [1], 3000 nM	–	0.367
E13 [8], 4.1 nM	0.81	–
E13 [8], 12.3 nM	0.795	–
E13 [8], 37 nM	3	–
E13 [8], 111.1 nM	0.903	–
E13 [8], 333.3 nM	3.34	–
E13 [8], 1000 nM	1.8	–
E13 [8], 3000 nM	3.77	–
E21 [2], 4.1 nM	–	0.928
E21 [2], 12.3 nM	–	0.925
E21 [2], 37 nM	–	0.965
E21 [2], 111.1 nM	–	0.903
E21 [2], 333.3 nM	–	0.964
E21 [2], 1000 nM	–	0.762
E21 [2], 3000 nM	–	0.552
E21 [9], 4.1 nM	1	–
E21 [9], 12.3 nM	0.629	–
E21 [9], 37 nM	1.26	–
E21 [9], 111.1 nM	0.988	–
E21 [9], 333.3 nM	1.51	–
E21 [9], 1000 nM	2.2	–
E21 [9], 3000 nM	4.77	–
E28 [3], 4.1 nM	–	0.954
E28 [3], 12.3 nM	–	1.03
E28 [3], 37 nM	–	1.04
E28 [3], 111.1 nM	–	0.884
E28 [3], 333.3 nM	–	1.04
E28 [3], 1000 nM	–	0.839
E28 [3], 3000 nM	–	0.748
E28 [10], 4.1 nM	1.12	–
E28 [10], 12.3 nM	0.421	–
E28 [10], 37 nM	0.961	–
E28 [10], 111.1 nM	0.709	–
E28 [10], 333.3 nM	0.784	–
E28 [10], 1000 nM	1.11	–
E28 [10], 3000 nM	1.45	–
E31 [4], 4.1 nM	–	0.956
E31 [4], 12.3 nM	–	0.937
E31 [4], 37 nM	–	1.03
E31 [4], 111.1 nM	–	0.964
E31 [4], 333.3 nM	–	1.03
E31 [4], 1000 nM	–	1.18
E31 [4], 3000 nM	–	0.648
E31 [11], 4.1 nM	0.745	–
E31 [11], 12.3 nM	0.7	–
E31 [11], 37 nM	0.853	–
E31 [11], 111.1 nM	0.867	–
E31 [11], 333.3 nM	1.39	–
E31 [11], 1000 nM	1.83	–
E31 [11], 3000 nM	3.79	–
E34 [5], 4.1 nM	–	0.818
E34 [5], 12.3 nM	–	0.897
E34 [5], 37 nM	–	1
E34 [5], 111.1 nM	–	0.845
E34 [5], 333.3 nM	–	0.754
E34 [5], 1000 nM	–	0.721
E34 [5], 3000 nM	–	0.448
E34 [12], 4.1 nM	0.861	–
E34 [12], 12.3 nM	0.839	–
E34 [12], 37 nM	0.672	–
E34 [12], 111.1 nM	0.741	–
E34 [12], 333.3 nM	1.14	–
E34 [12], 1000 nM	2.31	–
E34 [12], 3000 nM	3.14	–
E57 [6], 4.1 nM	–	0.988
E57 [6], 12.3 nM	–	1.11
E57 [6], 37 nM	–	0.949
E57 [6], 111.1 nM	–	0.977
E57 [6], 333.3 nM	–	0.908
E57 [6], 1000 nM	–	0.776
E57 [6], 3000 nM	–	0.396
E57 [13], 4.1 nM	0.958	–
E57 [13], 12.3 nM	0.865	–
E57 [13], 37 nM	1	–
E57 [13], 111.1 nM	1.03	–
E57 [13], 333.3 nM	2.28	–
E57 [13], 1000 nM	3.09	–
E57 [13], 3000 nM	6.18	–
FT3469 [7], 4.1 nM	–	0.963
FT3469 [7], 12.3 nM	–	0.887
FT3469 [7], 37 nM	–	1.07
FT3469 [7], 111.1 nM	–	0.895
FT3469 [7], 333.3 nM	–	0.922
FT3469 [7], 1000 nM	–	0.792
FT3469 [7], 3000 nM	–	0.648
FT3469 [14], 4.1 nM	0.687	–
FT3469 [14], 12.3 nM	1.29	–
FT3469 [14], 37 nM	0.725	–
FT3469 [14], 111.1 nM	0.625	–
FT3469 [14], 333.3 nM	1.47	–
FT3469 [14], 1000 nM	1.56	–
FT3469 [14], 3000 nM	2.68	–
